{
  "source": "patent US12281080B2",
  "about": "“Quinoline-based compounds and methods of inhibiting CDK8/19” (University of South Carolina, priority 2018, dated 2025)",
  "assay_in_all_cases": "KINOMEscan scanMAX",
  "key": {"[1]": {"target": "ABL1(F317I)-nonphosphorylated (Homo sapiens (Human), UniProt P00519, F317I)", "type": "binding", "settings": "2000 nM; read-out: Percent Control"}, "ADCK4": {"target": "ADCK4 (Homo sapiens (Human), UniProt Q96D53)", "type": "binding", "settings": "2000 nM; read-out: Percent Control"}, "ARK5 (NUAK1)": {"target": "ARK5 (NUAK1) (Homo sapiens (Human), UniProt O60285)", "type": "binding", "settings": "2000 nM; read-out: Percent Control"}, "CAMK1": {"target": "CAMK1 (Homo sapiens (Human), UniProt Q14012)", "type": "binding", "settings": "2000 nM; read-out: Percent Control"}, "CAMK1D": {"target": "CAMK1D (Homo sapiens (Human), UniProt Q8IU85)", "type": "binding", "settings": "2000 nM; read-out: Percent Control"}, "CAMK4": {"target": "CAMK4 (Homo sapiens (Human), UniProt Q16566)", "type": "binding", "settings": "2000 nM; read-out: Percent Control"}, "DCAMKL2 (DCLK2)": {"target": "DCAMKL2 (DCLK2) (Homo sapiens (Human), UniProt Q8N568)", "type": "binding", "settings": "2000 nM; read-out: Percent Control"}, "DLK (MAP3K12)": {"target": "DLK (MAP3K12) (Homo sapiens (Human), UniProt Q12852)", "type": "binding", "settings": "2000 nM; read-out: Percent Control"}, "DMPK": {"target": "DMPK (Homo sapiens (Human), UniProt Q09013)", "sequence (Q09013 whole entry)": "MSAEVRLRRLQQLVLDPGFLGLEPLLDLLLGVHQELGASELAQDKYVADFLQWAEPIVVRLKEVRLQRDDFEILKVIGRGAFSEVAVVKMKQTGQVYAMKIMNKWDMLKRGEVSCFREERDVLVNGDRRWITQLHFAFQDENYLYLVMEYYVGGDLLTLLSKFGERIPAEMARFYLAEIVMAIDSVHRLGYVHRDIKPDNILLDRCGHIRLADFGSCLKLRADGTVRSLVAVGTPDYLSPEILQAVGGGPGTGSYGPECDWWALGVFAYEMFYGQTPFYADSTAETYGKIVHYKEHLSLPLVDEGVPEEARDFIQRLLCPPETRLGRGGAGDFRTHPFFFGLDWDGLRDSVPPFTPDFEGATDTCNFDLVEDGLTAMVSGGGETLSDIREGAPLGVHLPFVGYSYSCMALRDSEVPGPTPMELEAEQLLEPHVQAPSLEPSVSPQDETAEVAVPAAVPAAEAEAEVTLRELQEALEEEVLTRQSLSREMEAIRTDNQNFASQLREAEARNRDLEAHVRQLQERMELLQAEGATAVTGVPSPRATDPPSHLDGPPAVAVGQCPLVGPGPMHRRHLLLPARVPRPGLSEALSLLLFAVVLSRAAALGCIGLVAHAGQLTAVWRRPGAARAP", "type": "binding", "settings": "2000 nM; read-out: Percent Control"}, "DYRK1B": {"target": "DYRK1B (Homo sapiens (Human), UniProt Q9Y463)", "type": "binding", "settings": "2000 nM; read-out: Percent Control"}, "EGFR(T790M)": {"target": "EGFR(T790M) (Homo sapiens (Human), UniProt P00533, T790M)", "type": "binding", "settings": "2000 nM; read-out: Percent Control"}, "EPHA2": {"target": "EPHA2 (Homo sapiens (Human), UniProt P29317)", "sequence (P29317 24-976)": "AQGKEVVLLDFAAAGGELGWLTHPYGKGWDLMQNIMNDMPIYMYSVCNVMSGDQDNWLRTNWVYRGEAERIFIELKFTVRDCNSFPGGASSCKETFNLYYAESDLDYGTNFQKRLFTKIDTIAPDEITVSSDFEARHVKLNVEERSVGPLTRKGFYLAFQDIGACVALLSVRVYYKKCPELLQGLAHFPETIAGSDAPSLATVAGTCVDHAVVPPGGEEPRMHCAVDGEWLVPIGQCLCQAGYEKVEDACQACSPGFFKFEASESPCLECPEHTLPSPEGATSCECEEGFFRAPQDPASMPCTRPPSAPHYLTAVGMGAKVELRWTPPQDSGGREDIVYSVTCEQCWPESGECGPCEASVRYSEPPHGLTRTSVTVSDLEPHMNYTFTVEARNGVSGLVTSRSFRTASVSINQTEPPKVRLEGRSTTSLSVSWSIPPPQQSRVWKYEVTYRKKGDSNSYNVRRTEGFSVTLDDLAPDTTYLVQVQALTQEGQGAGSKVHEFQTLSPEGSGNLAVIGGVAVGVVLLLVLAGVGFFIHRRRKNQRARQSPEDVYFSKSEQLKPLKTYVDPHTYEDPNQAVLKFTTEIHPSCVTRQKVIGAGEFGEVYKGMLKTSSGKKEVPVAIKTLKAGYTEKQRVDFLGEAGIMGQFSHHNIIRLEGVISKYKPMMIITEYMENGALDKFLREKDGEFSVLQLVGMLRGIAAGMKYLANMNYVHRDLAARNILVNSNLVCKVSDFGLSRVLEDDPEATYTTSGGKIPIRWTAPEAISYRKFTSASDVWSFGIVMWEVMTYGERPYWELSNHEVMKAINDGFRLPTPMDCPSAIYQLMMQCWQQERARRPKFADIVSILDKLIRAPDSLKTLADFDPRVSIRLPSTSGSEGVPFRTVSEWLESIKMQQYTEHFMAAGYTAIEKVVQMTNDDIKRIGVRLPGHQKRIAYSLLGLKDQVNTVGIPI", "type": "binding", "settings": "2000 nM; read-out: Percent Control"}, "EPHA3": {"target": "EPHA3 (Homo sapiens (Human), UniProt P29320)", "type": "binding", "settings": "2000 nM; read-out: Percent Control"}, "ERBB2": {"target": "ERBB2 (Homo sapiens (Human), UniProt P04626)", "sequence (P04626 23-1255)": "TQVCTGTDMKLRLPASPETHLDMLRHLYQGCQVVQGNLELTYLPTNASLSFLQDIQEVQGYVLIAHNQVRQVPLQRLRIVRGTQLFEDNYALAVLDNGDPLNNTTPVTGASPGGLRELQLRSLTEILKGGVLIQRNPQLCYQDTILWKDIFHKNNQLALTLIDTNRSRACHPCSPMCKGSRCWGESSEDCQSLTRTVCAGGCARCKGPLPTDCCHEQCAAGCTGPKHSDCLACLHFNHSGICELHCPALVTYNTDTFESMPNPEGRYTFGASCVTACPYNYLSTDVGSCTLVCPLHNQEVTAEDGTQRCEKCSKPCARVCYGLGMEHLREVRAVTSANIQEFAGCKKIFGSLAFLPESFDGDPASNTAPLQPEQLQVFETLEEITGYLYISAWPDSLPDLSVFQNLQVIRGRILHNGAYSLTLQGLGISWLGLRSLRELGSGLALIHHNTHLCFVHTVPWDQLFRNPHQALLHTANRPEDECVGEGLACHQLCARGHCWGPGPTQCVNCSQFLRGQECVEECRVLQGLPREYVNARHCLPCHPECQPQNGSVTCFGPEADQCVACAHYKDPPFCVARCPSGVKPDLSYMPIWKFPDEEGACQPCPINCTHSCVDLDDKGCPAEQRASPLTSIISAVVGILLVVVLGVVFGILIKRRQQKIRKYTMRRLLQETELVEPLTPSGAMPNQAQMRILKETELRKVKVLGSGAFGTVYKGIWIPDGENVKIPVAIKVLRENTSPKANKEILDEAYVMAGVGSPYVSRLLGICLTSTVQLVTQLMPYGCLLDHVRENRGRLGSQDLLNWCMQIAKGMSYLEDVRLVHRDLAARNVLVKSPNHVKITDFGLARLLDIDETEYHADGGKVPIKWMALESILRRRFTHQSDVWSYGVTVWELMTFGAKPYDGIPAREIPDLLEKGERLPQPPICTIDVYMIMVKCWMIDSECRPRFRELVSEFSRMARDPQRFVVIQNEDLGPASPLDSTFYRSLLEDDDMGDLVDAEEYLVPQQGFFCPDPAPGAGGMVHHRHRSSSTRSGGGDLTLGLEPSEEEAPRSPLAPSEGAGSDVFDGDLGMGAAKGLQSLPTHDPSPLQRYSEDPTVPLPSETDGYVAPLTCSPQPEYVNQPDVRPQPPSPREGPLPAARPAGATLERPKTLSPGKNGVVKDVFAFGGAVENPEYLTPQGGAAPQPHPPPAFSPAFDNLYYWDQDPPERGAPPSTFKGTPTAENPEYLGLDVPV", "type": "binding", "settings": "2000 nM; read-out: Percent Control"}, "FLT3(ITD, F691L)": {"tested_on": "FLT3(ITD, F691L)", "type": "binding, human", "settings": "2000 nM"}, "GRK4": {"target": "GRK4 (Homo sapiens (Human), UniProt P32298)", "type": "binding", "settings": "2000 nM; read-out: Percent Control"}, "IRAK4": {"target": "IRAK4 (Homo sapiens (Human), UniProt Q9NWZ3)", "type": "binding", "settings": "2000 nM; read-out: Percent Control"}, "[2]": {"target": "JAK1(JH2domain-pseudokinase) (Homo sapiens (Human), UniProt P23458)", "type": "binding", "settings": "2000 nM; read-out: Percent Control"}, "LCK": {"target": "LCK (Homo sapiens (Human), UniProt P06239)", "type": "binding", "settings": "2000 nM; read-out: Percent Control"}, "MAP3K15": {"target": "MAP3K15 (Homo sapiens (Human), UniProt Q6ZN16)", "type": "binding", "settings": "2000 nM; read-out: Percent Control"}, "MEK3 (MAP2K3)": {"target": "MEK3 (MAP2K3) (Homo sapiens (Human), UniProt P46734)", "sequence (P46734 whole entry)": "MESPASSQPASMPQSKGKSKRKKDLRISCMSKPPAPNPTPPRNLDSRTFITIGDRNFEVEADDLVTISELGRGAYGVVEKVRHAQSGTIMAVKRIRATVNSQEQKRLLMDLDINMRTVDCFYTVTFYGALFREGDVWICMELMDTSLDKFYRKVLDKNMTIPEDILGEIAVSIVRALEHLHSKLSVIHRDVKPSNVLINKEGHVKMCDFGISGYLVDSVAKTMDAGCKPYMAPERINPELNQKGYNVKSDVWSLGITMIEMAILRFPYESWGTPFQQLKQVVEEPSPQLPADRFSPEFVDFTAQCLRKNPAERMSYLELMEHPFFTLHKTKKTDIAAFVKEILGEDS", "type": "binding", "settings": "2000 nM; read-out: Percent Control"}, "MET(Y1235D)": {"target": "MET(Y1235D) (Homo sapiens (Human), UniProt P08581, Y1235D)", "sequence (P08581 25-1390 Y1235D)": "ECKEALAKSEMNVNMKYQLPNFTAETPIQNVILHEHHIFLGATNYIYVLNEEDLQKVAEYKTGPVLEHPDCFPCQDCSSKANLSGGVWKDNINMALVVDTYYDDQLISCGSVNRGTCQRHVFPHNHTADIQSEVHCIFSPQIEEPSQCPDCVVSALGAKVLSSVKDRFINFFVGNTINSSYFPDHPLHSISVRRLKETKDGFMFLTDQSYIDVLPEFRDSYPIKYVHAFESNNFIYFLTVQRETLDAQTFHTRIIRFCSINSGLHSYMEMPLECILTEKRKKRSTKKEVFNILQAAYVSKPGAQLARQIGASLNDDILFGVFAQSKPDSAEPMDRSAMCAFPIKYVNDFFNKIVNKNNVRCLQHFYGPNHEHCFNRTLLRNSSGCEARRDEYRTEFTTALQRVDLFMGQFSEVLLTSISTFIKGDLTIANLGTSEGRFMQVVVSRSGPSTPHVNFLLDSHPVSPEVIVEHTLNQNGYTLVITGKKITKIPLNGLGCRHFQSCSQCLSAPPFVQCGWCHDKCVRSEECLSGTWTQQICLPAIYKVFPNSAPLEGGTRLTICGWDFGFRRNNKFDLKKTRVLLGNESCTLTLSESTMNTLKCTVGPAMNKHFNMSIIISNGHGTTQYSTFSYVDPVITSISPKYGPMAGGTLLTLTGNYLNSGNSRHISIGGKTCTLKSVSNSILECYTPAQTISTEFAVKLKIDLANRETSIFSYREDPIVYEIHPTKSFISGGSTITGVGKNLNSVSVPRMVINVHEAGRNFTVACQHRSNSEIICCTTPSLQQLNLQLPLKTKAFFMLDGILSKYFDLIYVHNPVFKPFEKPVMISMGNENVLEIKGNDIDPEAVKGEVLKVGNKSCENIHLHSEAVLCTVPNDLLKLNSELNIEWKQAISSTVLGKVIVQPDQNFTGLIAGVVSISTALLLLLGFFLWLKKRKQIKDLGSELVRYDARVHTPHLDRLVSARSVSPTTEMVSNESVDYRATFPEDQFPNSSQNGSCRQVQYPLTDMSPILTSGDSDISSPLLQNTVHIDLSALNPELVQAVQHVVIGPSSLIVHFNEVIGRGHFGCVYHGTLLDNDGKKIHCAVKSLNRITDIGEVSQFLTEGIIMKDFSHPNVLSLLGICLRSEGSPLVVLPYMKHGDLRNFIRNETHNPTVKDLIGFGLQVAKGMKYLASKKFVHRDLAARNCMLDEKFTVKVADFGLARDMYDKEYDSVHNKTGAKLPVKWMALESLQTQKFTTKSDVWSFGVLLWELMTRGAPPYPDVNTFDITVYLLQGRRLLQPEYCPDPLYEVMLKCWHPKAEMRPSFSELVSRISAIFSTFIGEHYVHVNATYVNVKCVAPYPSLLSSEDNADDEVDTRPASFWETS", "type": "binding", "settings": "2000 nM; read-out: Percent Control"}, "MYLK4": {"target": "MYLK4 (Homo sapiens (Human), UniProt Q86YV6)", "sequence (Q86YV6 whole entry)": "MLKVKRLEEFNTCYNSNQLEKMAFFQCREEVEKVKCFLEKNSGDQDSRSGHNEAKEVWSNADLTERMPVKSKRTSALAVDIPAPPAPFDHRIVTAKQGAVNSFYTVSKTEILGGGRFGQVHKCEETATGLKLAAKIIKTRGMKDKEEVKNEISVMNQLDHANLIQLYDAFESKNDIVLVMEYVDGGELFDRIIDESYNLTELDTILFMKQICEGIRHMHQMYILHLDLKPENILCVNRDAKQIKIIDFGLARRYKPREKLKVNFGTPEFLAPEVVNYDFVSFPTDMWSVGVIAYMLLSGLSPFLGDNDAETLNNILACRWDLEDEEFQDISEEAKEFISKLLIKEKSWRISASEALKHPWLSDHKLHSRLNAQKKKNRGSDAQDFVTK", "type": "binding", "settings": "2000 nM; read-out: Percent Control"}, "NEK2": {"target": "NEK2 (Homo sapiens (Human), UniProt P51955)", "type": "binding", "settings": "2000 nM; read-out: Percent Control"}, "PFTAIRE2 (CDK15)": {"target": "PFTAIRE2 (CDK15) (Homo sapiens (Human), UniProt Q96Q40)", "type": "binding", "settings": "2000 nM; read-out: Percent Control"}, "PHKG2": {"target": "PHKG2 (Homo sapiens (Human), UniProt P15735)", "type": "binding", "settings": "2000 nM; read-out: Percent Control"}, "PIK3CA(M1043I)": {"target": "PIK3CA(M1043I) (Homo sapiens (Human), UniProt P42336, M1043I)", "type": "binding", "settings": "2000 nM; read-out: Percent Control"}, "PIP5K2C (PIP4K2C)": {"target": "PIP5K2C (PIP4K2C) (Homo sapiens (Human), UniProt Q8TBX8)", "type": "binding", "settings": "2000 nM; read-out: Percent Control"}, "PRKD1": {"target": "PRKD1 (Homo sapiens (Human), UniProt Q15139)", "type": "binding", "settings": "2000 nM; read-out: Percent Control"}, "PRKG1": {"target": "PRKG1 (Homo sapiens (Human), UniProt Q13976)", "type": "binding", "settings": "2000 nM; read-out: Percent Control"}, "RET(V804L)": {"target": "RET(V804L) (Homo sapiens (Human), UniProt P07949, V804L)", "type": "binding", "settings": "2000 nM; read-out: Percent Control"}, "[3]": {"target": "RPS6KA4(Kin.Dom.1-N-terminal) (Homo sapiens (Human), UniProt O75676)", "type": "binding", "settings": "2000 nM; read-out: Percent Control"}, "[4]": {"target": "RSK3(Kin.Dom.2-C-terminal) (RPS6KA2) (Homo sapiens (Human), UniProt Q15349)", "type": "binding", "settings": "2000 nM; read-out: Percent Control"}, "SIK (SIK1)": {"target": "SIK (SIK1) (Homo sapiens (Human), UniProt P57059)", "type": "binding", "settings": "2000 nM; read-out: Percent Control"}, "SNRK": {"target": "SNRK (Homo sapiens (Human), UniProt Q9NRH2)", "type": "binding", "settings": "2000 nM; read-out: Percent Control"}, "STK36": {"target": "STK36 (Homo sapiens (Human), UniProt Q9NRP7)", "type": "binding", "settings": "2000 nM; read-out: Percent Control"}, "TEC": {"target": "TEC (Homo sapiens (Human), UniProt P42680)", "type": "binding", "settings": "2000 nM; read-out: Percent Control"}, "YANK3 (STK32C)": {"target": "YANK3 (STK32C) (Homo sapiens (Human), UniProt Q86UX6)", "type": "binding", "settings": "2000 nM; read-out: Percent Control"}, "ZAK": {"target": "ZAK (Homo sapiens (Human), UniProt Q9NYL2)", "type": "binding", "settings": "2000 nM; read-out: Percent Control"}},
  "data": [
    {"smiles": "CN1CCN(C(=O)c2ccc3cc(CCNc4ccnc5ccc(C#N)cc45)ccc3c2)CC1", "note": "[compound 6148, 4-((2-(6-(4-methylpiperazine-1-carbonyl)naphthalen-2-yl)ethyl)amino)quinoline-6-carbonitrile]", "values": [
      {"measurement": "remaining binding at 2 µM", "setting": "[1]", "result": 88, "unit": "%"},
      {"measurement": "remaining binding at 2 µM", "setting": "ADCK4", "result": 97, "unit": "%"},
      {"measurement": "remaining binding at 2 µM", "setting": "ARK5 (NUAK1)", "result": 89, "unit": "%"},
      {"measurement": "remaining binding at 2 µM", "setting": "CAMK1", "result": 84, "unit": "%"},
      {"measurement": "remaining binding at 2 µM", "setting": "CAMK1D", "result": 80, "unit": "%"},
      {"measurement": "remaining binding at 2 µM", "setting": "CAMK4", "result": 95, "unit": "%"},
      {"measurement": "remaining binding at 2 µM", "setting": "DCAMKL2 (DCLK2)", "result": 94, "unit": "%"},
      {"measurement": "remaining binding at 2 µM", "setting": "DLK (MAP3K12)", "result": 68, "unit": "%"},
      {"measurement": "remaining binding at 2 µM", "setting": "DMPK", "result": 98, "unit": "%"},
      {"measurement": "remaining binding at 2 µM", "setting": "DYRK1B", "result": 83, "unit": "%"},
      {"measurement": "remaining binding at 2 µM", "setting": "EGFR(T790M)", "result": 93, "unit": "%"},
      {"measurement": "remaining binding at 2 µM", "setting": "EPHA2", "result": 100, "unit": "%"},
      {"measurement": "remaining binding at 2 µM", "setting": "EPHA3", "result": 100, "unit": "%"},
      {"measurement": "remaining binding at 2 µM", "setting": "ERBB2", "result": 73, "unit": "%"},
      {"measurement": "Percent Control", "setting": "FLT3(ITD, F691L)", "result": 59, "unit": "%"},
      {"measurement": "remaining binding at 2 µM", "setting": "GRK4", "result": 100, "unit": "%"},
      {"measurement": "remaining binding at 2 µM", "setting": "IRAK4", "result": 67, "unit": "%"},
      {"measurement": "remaining binding at 2 µM", "setting": "[2]", "result": 58, "unit": "%"},
      {"measurement": "remaining binding at 2 µM", "setting": "LCK", "result": 92, "unit": "%"},
      {"measurement": "remaining binding at 2 µM", "setting": "MAP3K15", "result": 83, "unit": "%"},
      {"measurement": "remaining binding at 2 µM", "setting": "MEK3 (MAP2K3)", "result": 87, "unit": "%"},
      {"measurement": "remaining binding at 2 µM", "setting": "MET(Y1235D)", "result": 78, "unit": "%"},
      {"measurement": "remaining binding at 2 µM", "setting": "MYLK4", "result": 98, "unit": "%"},
      {"measurement": "remaining binding at 2 µM", "setting": "NEK2", "result": 100, "unit": "%"},
      {"measurement": "remaining binding at 2 µM", "setting": "PFTAIRE2 (CDK15)", "result": 100, "unit": "%"},
      {"measurement": "remaining binding at 2 µM", "setting": "PHKG2", "result": 100, "unit": "%"},
      {"measurement": "remaining binding at 2 µM", "setting": "PIK3CA(M1043I)", "result": 80, "unit": "%"},
      {"measurement": "remaining binding at 2 µM", "setting": "PIP5K2C (PIP4K2C)", "result": 84, "unit": "%"},
      {"measurement": "remaining binding at 2 µM", "setting": "PRKD1", "result": 90, "unit": "%"},
      {"measurement": "remaining binding at 2 µM", "setting": "PRKG1", "result": 100, "unit": "%"},
      {"measurement": "remaining binding at 2 µM", "setting": "RET(V804L)", "result": 88, "unit": "%"},
      {"measurement": "remaining binding at 2 µM", "setting": "[3]", "result": 100, "unit": "%"},
      {"measurement": "remaining binding at 2 µM", "setting": "[4]", "result": 91, "unit": "%"},
      {"measurement": "remaining binding at 2 µM", "setting": "SIK (SIK1)", "result": 91, "unit": "%"},
      {"measurement": "remaining binding at 2 µM", "setting": "SNRK", "result": 75, "unit": "%"},
      {"measurement": "remaining binding at 2 µM", "setting": "STK36", "result": 88, "unit": "%"},
      {"measurement": "remaining binding at 2 µM", "setting": "TEC", "result": 100, "unit": "%"},
      {"measurement": "remaining binding at 2 µM", "setting": "YANK3 (STK32C)", "result": 100, "unit": "%"},
      {"measurement": "remaining binding at 2 µM", "setting": "ZAK", "result": 94, "unit": "%"}
    ]}
  ]
}
